Series [1] is described as follows: Oral pharmacokinetic study in rats. It counts as in vivo. The following applies: rat, brain, male SD rats, oral gavage, read-out: B/P (1 h). The method, then: Drug preparation: 1% MC was added to the compound, ground, and shaken uniformly. Samples were collected at 5 min, 15 min, 30 min, 1 h, 2 h, 4 h, and 8 h post-dose, followed by analysis using liquid chromatography-tandem mass spectrometry (LC-MS/MS).

In series [2] the target is LRRK2 wt (Homo sapiens, UniProt Q5S007). In words: Kinase activity inhibition assay (ADP-Glo), LRRK2 wt. It is filed as biochemical. To be noted: read-out: LRRK2 wt inhibition rate at 100 nM; compound at 100 nM. The method, then: The kinase activity inhibition assay was performed by ICE Bioscience (Beijing) using ADP-Glo and HTRF methods.
(In general: In ADP-Glo the light output rises with the ADP produced.)

Each structure is given as a SMILES string. Like-named read-outs stand apart in the source and are kept apart here.

LRRK2 wt, sequence (Q5S007 whole entry): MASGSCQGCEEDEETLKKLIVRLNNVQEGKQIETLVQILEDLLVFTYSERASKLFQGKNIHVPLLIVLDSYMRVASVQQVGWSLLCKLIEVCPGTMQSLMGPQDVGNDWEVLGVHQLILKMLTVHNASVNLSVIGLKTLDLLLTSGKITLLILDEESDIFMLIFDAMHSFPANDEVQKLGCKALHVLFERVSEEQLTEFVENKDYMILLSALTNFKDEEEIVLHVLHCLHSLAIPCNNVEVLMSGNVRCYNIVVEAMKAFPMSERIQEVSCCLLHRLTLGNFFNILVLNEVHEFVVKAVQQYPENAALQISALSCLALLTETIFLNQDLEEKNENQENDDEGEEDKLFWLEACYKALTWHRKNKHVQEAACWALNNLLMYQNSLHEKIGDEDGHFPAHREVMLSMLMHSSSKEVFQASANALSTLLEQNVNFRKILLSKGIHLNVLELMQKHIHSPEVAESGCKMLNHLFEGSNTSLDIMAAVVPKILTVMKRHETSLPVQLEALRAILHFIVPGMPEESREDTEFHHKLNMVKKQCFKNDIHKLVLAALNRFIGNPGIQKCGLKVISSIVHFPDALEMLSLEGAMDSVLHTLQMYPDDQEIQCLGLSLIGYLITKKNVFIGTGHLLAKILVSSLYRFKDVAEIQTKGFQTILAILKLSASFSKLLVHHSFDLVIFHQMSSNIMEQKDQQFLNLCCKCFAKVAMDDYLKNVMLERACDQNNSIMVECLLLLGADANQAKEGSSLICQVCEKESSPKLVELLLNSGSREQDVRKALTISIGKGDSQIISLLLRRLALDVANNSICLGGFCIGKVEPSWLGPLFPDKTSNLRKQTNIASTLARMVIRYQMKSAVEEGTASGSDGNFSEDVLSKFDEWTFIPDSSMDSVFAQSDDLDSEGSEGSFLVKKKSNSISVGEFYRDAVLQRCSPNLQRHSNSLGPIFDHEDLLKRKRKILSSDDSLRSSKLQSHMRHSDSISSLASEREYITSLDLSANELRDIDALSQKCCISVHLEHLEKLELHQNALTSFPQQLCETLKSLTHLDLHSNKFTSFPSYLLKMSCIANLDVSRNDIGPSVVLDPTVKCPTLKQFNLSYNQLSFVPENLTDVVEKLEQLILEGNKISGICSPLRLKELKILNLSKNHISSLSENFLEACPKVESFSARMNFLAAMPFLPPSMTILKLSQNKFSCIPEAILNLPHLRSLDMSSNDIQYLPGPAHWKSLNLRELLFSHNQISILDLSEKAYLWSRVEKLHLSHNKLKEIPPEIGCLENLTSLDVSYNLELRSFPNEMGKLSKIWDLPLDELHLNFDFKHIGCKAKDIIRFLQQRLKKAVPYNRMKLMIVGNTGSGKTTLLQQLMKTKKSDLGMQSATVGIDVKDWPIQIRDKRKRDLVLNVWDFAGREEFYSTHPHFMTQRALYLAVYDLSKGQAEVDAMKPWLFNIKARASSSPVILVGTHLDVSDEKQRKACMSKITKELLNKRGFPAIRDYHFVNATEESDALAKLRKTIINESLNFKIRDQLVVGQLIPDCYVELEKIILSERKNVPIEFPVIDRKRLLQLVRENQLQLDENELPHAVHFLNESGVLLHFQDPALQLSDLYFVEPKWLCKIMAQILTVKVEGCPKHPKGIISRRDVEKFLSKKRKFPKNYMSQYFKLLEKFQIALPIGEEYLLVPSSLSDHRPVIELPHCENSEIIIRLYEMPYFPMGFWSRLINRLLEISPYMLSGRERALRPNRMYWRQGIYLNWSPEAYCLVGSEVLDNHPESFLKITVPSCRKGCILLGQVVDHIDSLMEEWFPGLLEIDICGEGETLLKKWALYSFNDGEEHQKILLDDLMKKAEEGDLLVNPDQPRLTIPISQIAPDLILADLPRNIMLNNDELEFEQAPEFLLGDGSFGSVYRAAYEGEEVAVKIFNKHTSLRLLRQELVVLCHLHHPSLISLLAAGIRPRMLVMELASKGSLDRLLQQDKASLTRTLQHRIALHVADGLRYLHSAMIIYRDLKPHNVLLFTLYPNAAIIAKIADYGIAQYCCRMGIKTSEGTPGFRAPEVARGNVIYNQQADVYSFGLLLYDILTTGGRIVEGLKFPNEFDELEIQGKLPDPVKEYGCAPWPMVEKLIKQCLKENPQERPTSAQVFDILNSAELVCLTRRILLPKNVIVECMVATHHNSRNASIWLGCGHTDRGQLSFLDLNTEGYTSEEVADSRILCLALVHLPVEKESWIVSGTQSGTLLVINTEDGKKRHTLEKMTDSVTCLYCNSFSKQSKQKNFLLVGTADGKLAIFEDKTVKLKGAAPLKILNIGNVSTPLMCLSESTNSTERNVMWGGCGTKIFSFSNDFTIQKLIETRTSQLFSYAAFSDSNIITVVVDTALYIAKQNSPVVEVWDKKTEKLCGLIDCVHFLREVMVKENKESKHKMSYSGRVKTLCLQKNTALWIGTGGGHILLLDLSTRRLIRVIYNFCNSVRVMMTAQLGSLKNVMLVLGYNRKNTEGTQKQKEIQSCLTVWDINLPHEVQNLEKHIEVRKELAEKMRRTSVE

Turning to `Cc1nn2cc1Nc1ncc(C(F)(F)F)c(n1)NCCCNC(=O)C2(C)C` [Example T-1, (E)-3^3,4,4-Trimethyl-15-(trifluoromethyl)-3^1H-2,6,10-triaza-1(2,4)-pyrimidina-3(4,1)-pyrazolacyclodecan-5-one], the Kp at 1 h in series [1] (3 mg/kg, 3 mpk) stood at 0.13.

Take `Cc1nn2cc1Nc1ncc3c(Cl)cc(n3n1)CCCNC(=O)C2(C)C` [Example T-25, (1^1Z,3^4E)-1^5-Chloro-3^3,4,4-trimethyl-3^1H-2,6-diaza-1(2,7)-pyrrolo[2,1-f][1,2,4]triazine-3(4,1)-pyrazolacyclononan-5-one]: the Kp at 1 h in series [1] (5 mg/kg, 5 mpk) was determined as 0.58.

In general, inhibition refers to the change of the read-out against control, counted positive when it falls. For the compound `Cc1nn2cc1Nc1ncc(C(F)(F)F)c(n1)NC1CCCC(C1)NC(=O)C2(C)C` (stereo not drawn) [Example T-42, (5^3R,E)-1^3,8,8-Trimethyl-3^5-(trifluoromethyl)-1^1H-2,4,6-triaza-3(2,4)-pyrimidina-1(4,1)-pyrazola-5(1,3)-cyclohexacyclooctan-7-one], in series [2], the inhibition at 0.1 µM was 42.1%.
